Target: T1, hNav1.8 (Homo sapiens, UniProt Q9Y5Y9)
T1 construct: host or cells: HEK cells, stably transfected
Assay: hNav1.8 whole-cell patch-clamp electrophysiology (conventional or PatchXpress 7000) in stably transfected HEK cells
Assay type: cell-based
Settings: estimated IC50 calculated from single point % inhibition; HEK cells expressing hNav1.8; 8 sec prepulse to V1/2, 20 msec step to 0 mV; average of replicates; read-out: Nav1.8 EIC50
Outline: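 Whole-cell voltage clamp at 22-24 °C in HEK cells stably expressing hNav1.8, manually or on PatchXpress. Current evoked by 20 msec step to 0 mV after 8 s prepulse to each cell's inactivation V1/2; single-concentration % inhibition converted to estimated IC50, using only 20-80% inhibition values, averaged over replicates.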

T1 sequence (Q9Y5Y9 whole entry): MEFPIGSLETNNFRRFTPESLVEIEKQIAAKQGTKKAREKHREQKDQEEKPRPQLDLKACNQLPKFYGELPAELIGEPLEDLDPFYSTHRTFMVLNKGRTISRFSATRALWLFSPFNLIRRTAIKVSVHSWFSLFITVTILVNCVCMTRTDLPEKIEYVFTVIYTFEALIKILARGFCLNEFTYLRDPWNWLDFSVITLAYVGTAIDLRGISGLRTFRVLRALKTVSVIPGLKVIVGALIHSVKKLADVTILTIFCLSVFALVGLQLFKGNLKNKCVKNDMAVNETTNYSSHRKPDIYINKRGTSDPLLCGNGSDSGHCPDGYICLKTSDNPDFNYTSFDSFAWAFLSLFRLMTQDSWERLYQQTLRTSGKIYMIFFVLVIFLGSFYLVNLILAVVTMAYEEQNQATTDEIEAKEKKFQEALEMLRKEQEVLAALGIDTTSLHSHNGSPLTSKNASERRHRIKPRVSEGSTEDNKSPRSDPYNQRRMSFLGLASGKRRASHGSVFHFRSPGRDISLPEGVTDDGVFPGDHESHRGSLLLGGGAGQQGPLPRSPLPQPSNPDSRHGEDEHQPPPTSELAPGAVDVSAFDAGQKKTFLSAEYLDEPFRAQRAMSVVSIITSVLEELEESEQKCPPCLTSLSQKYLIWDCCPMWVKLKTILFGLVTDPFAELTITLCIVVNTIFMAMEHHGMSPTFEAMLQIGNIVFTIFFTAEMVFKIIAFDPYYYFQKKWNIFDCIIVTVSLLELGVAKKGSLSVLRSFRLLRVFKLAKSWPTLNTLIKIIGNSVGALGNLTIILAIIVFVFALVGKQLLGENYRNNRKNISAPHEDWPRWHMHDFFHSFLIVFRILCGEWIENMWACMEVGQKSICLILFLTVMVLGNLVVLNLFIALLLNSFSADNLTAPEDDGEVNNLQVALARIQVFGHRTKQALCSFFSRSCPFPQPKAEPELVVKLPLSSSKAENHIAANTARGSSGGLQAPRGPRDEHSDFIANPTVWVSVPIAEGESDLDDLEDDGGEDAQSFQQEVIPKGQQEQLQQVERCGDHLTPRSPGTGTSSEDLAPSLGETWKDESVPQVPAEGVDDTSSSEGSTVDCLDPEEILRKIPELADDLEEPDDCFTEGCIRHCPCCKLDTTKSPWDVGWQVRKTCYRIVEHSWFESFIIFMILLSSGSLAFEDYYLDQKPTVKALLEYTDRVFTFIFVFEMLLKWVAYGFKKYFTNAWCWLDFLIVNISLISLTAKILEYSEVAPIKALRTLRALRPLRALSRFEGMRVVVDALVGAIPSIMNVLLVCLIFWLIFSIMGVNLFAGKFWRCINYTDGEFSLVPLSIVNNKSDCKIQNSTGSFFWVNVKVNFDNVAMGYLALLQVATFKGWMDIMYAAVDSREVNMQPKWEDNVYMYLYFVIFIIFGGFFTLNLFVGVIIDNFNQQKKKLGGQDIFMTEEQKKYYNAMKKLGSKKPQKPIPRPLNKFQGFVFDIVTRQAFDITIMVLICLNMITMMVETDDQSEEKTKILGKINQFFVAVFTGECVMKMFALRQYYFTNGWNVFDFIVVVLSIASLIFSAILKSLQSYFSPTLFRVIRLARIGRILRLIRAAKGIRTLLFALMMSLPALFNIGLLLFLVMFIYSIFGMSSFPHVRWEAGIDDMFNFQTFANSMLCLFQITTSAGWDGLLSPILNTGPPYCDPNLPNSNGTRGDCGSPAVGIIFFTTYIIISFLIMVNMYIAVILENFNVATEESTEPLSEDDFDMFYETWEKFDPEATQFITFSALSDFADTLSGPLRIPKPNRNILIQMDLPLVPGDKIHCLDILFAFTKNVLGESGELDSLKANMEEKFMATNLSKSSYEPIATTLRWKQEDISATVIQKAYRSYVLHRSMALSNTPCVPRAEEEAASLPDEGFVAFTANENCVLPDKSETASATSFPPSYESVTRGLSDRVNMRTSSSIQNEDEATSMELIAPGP

| IC50 [nM] | Compound |
| --- | --- |
| 223 | CC(C)(C)c1ccc2[nH]c([C@@H](N)CCCO)nc2c1 [Example 140, (4S)-4-Amino-4(5-tert-butyl-1H-benzimidazol-2-yl)butan-1-ol] |
| 797 | CC(C)(C)c1ccc2[nH]c([C@@H](N)C(C)(C)C(N)=O)nc2c1 [Example 141, (3S)-3-Amino-3-(5-tert-butyl-1H-benzimidazol-2-yl)-2,2-dimethylpropanamide] |
| 1840 | COC(C)(C)C(N)c1nc2cc(-c3ccc(C#N)cc3)ccc2[nH]1 (stereo not shown) [Example 142, 4-[2-(1-Amino-2-methoxy-2-methylpropyl)-1H-benzimidazol-5-yl]benzonitrile] |
| 41.3 | CC[C@@H](C(N)=O)[C@H](N)c1nc2cc(C(C)(C)C)ccc2[nH]1 [Example 144, (R)-2-((S)-Amino-(6-(tert-butyl)-1H-benzo[d]imidazol-2-yl)methyl)butanamide] |
| 284 | CO[C@H](C)[C@H](N)c1nc2cc(C3CCCC3)ccc2[nH]1 [Example 145, (1R,2R)-1-(5-Cyclopentyl-1H-benzo[d]imidazol-2-yl)-2-methoxypropan-1-amine] |
| 27.3 | CCC[C@H](N)c1nc2cc(-c3ccc(C#N)c(F)c3)ccc2[nH]1 [Example 146, 4-{2-[(1S)-1-Aminobutyl]-1H-benzimidazol-5-yl}-2-fluorobenzonitrile] |
| 110 | CCC[C@H](N)c1nc2cc(-c3ccc(C#N)cc3)ccc2[nH]1 [Example 147, 4-{2-[(1S)-1-Aminobutyl]-1H-benzimidazol-5-yl}benzonitrile] |
| 1000 | CC(C)c1ccc2[nH]c([C@H](N)[C@@H](C)O)nc2c1 [Example 148, (1S,2R)-1-Amino-1-[5-(propan-2-yl)-1H-benzimidazol-2-yl]propan-2-ol] |
| 303 | C[C@@H](C(=O)N(C)C)[C@H](N)c1nc2cc(C(C)(C)C)ccc2[nH]1 [Example 149, (2R,3S)-3-Amino-3-(5-tert-butyl-1H-benzimidazol-2-yl)-N,N,2-trimethylpropanamide] |
| 134 | CC(N)(CO)c1nc2cc(-c3ccc(C#N)c(F)c3)ccc2[nH]1 (stereo not shown) [Example 150, 4-(2-(2-Amino-1-hydroxypropan-2-yl)-1H-benzo[d]imidazol-5-yl)-2-fluorobenzonitrile] |
| 45.2 | C[C@H](OC(N)=O)[C@H](N)c1nc2cc(C34CC5CC(CC(C5)C3)C4)ccc2[nH]1 [Example 151, (1R,2S)-1-(5-((3R,5R,7R)-Adamantan-1-yl)-1H-benzo[d]imidazol-2-yl)-1-aminopropan-2-yl carbamate] |
| 101 | NC(=O)C[C@H](N)c1nc2cc(C34CC5CC(CC(C5)C3)C4)ccc2[nH]1 [Example 152, (3S)-3-Amino-3-[5-(tricyclo[3.3.1.1^3,7]dec-1-yl)-1H-benzimidazol-2-yl]propanamide] |
| 96.3 | COC[C@H](N)c1nc2cc(-c3ccc(C#N)cc3)ccc2[nH]1 [Example 153, 4-{2-[(1R)-1-Amino-2-methoxyethyl]-1H-benzimidazol-5-yl}benzonitrile] |

More lines, now with the values behind:

| Compound | IC50 [nM] |
| --- | --- |
| C[C@@H](C(N)=O)[C@H](N)c1nc2c(Cl)c(-c3ccc(C#N)c(F)c3)ccc2[nH]1 [Example 110, (2R,3S)-3-Amino-3-[4-chloro-5-(4-cyano-3-fluorophenyl)-1H-benzimidazol-2-yl]-2-methylpropanamide] | 233 |
| C[C@@H](C(N)=O)[C@H](N)c1nc2c(Cl)c(-c3ccc(C#N)cc3)ccc2[nH]1 [Example 111, (2R,3S)-3-Amino-3-[4-chloro-5-(4-cyanophenyl)-1H-benzimidazol-2-yl]-2-methylpropanamide] | 190 |
| CC[C@H](N)c1nc2cc(CC(C)(C)C)ccc2[nH]1 [Example 112, (1S)-1-[5-(2,2-Dimethylpropyl)-1H-benzimidazol-2-yl]propan-1-amine] | 187 |
| CC[C@H](N)c1nc2cc(C3CCC3)ccc2[nH]1 [Example 113, 1-(5-Cyclobutyl-1H-benzimidazol-2-yl)propylamine] | 749 |
| N#Cc1ccc(-c2ccc3[nH]c(C4(N)Cc5ccccc5C4)nc3c2)cc1F [Example 114, 4-[2-(2-Amino-2,3-dihydro-1H-inden-2-yl)-1H-benzimidazol-5-yl]-2-fluorobenzonitrile] | 27.8 |
| CC(C)(C)Cc1ccc2[nH]c(C(C)(N)CO)nc2c1 (stereo not shown) [Example 115, 2-Amino-2-[6-(2,2-dimethylpropyl)-1H-benzimidazol-2-yl]propan-1-ol] | 278 |
| CC(C)(C)Cc1ccc2[nH]c(C3(N)Cc4ccccc4C3)nc2c1 [Example 116, 2-[6-(2,2-Dimethylpropyl)-1H-benzimidazol-2-yl]-2,3-dihydro-1H-inden-2-amine] | 222 |
| N#Cc1ccc(-c2ccc3[nH]c([C@@H](N)CC(N)=O)nc3c2)cc1F [Example 117, (3S)-3-Amino-3-[5-(4-cyano-3-fluorophenyl)-1H-benzimidazol-2-yl]propanamide] | 2490 |
| CC(C)(C)Cc1ccc2[nH]c([C@@H](N)CC(N)=O)nc2c1 [Example 118, (3S)-3-Amino-3-[5-(2,2-dimethylpropyl)-1H-benzimidazol-2-yl]propanamide] | 348 |
| N#Cc1ccc(-c2ccc3[nH]c([C@@H](N)CC(N)=O)nc3c2)c(Cl)c1 [Example 119, (3S)-3-Amino-3-[5-(2-chloro-4-cyanophenyl)-1H-benzimidazol-2-yl]propanamide] | 671 |
| CO[C@H](C)[C@H](N)c1nc2c(Cl)c(-c3ccc(C#N)c(F)c3)ccc2[nH]1 [Example 120, 4-{2-[(1R,2R)-1-Amino-2-methoxypropyl]-4-chloro-1H-benzimidazol-5-yl}-2-fluorobenzonitrile] | 88.5 |
| C[C@@H](O)[C@H](N)c1nc2c(Cl)c(-c3ccc(C#N)c(F)c3)ccc2[nH]1 [Example 121, 4-{2-[(1R,2R)-1-Amino-2-hydroxypropyl]-4-chloro-1H-benzimidazol-5-yl}-2-fluorobenzonitrile] | 3050 |
| C[C@@H](O)[C@H](N)c1nc2cc(-c3ccc(C#N)cc3Cl)ccc2[nH]1 [Example 122, 4-{2-[(1R,2R)-1-Amino-2-hydroxypropyl]-1H-benzimidazol-6-yl}-3-chlorobenzonitrile] | 326 |
| CO[C@H](C)[C@H](N)c1nc2cc(C(C)C)ccc2[nH]1 [Example 123, (1R,2R)-2-Methoxy-1-[5-(propan-2-yl)-1H-benzimidazol-2-yl]propan-1-amine] | 1080 |
| CC(C)c1ccc2[nH]c([C@@H](N)[C@H](O)C(C)C)nc2c1 [Example 125, (1R,2R)-1-Amino-3-methyl-1-[5-(propan-2-yl)-1H-benzimidazol-2-yl]butan-2-ol] | 2220 |
| CC[C@@H](O)[C@H](N)c1nc2cc(C(C)C)ccc2[nH]1 [Example 126, (1R,2R)-1-Amino-1-[5-(propan-2-yl)-1H-benzimidazol-2-yl]butan-2-ol] | 967 |
| CO[C@@H](C)[C@H](N)c1nc2cc(C(C)C)ccc2[nH]1 [Example 127, (1R,2S)-2-Methoxy-1-[5-(propan-2-yl)-1H-benzimidazol-2-yl]propan-1-amine] | 2770 |
| CO[C@@H](C)[C@H](N)c1nc2cc(C(C)(C)C)ccc2[nH]1 [Example 128, (1R,2S)-1-(5-tert-Butyl-1H-benzimidazol-2-yl)-2-methoxypropan-1-amine] | 368 |
| CC(C)(C)c1ccc2[nH]c([C@@H]3CCN3)nc2c1 [Example 129, 2-[(2S)-Azetidin-2-yl]-5-tert-butyl-1H-benzimidazole] | 510 |
| CC(C)(C)c1ccc2[nH]c([C@H]3CCN3)nc2c1 [Example 130, 2-[(2R)-Azetidin-2-yl]-5-tert-butyl-1H-benzimidazole] | 1340 |
| CC(C)(C)c1ccc2[nH]c([C@@H]3C[C@@H](F)CN3)nc2c1 [Example 131, 5-tert-Butyl-2-[(2S,4R)-4-fluoropyrrolidin-2-yl]-1H-benzimidazole] | 394 |
| CC(C)(C)c1ccc2[nH]c([C@@H]3C[C@H](F)CN3)nc2c1 [Example 132, 5-tert-Butyl-2-[(2S,4S)-4-fluoropyrrolidin-2-yl]-1H-benzimidazole] | 191 |
| CC(C)[C@@H](O)[C@H](N)c1nc2cc(C(C)(C)C)ccc2[nH]1 [Example 133, (1R,2R)-1-Amino-1-(5-tert-butyl-1H-benzimidazol-2-yl)-3-methylbutan-2-ol] | 228 |
| CC(C)(C)c1ccc2[nH]c([C@H](N)CCO)nc2c1 [Example 134, (3R)-3-Amino-3-(5-tert-butyl-1H-benzimidazol-2-yl)propan-1-ol] | 355 |
| CC(C)(C)c1ccc2[nH]c([C@H](N)CCCO)nc2c1 [Example 135, (4R)-4-Amino-4-(5-tert-butyl-1H-benzimidazol-2-yl)butan-1-ol] | 1000 |
| CC(C)(C)c1ccc2[nH]c([C@H]3NCC[C@H]3O)nc2c1 [Example 136, (2R,3R)-2-(5-tert-Butyl-1H-benzimidazol-2-yl)pyrrolidin-3-ol] | 508 |
| C[C@@H](O)[C@@H](N)c1nc2cc(-c3ccc(C#N)cc3)ccc2[nH]1 [Example 137, 4-{2-[(1S,2R)-1-Amino-2-hydroxypropyl]-1H-benzimidazol-5-yl}benzonitrile] | 915 |
| C[C@H](O)[C@H](N)c1nc2cc(-c3ccc(C#N)cc3)ccc2[nH]1 [Example 138, 4-{2-[(1R,2S)-1-Amino-2-hydroxypropyl]-1H-benzimidazol-5-yl}benzonitrile] | 486 |
| CC[C@@H](O)[C@H](N)c1nc2cc(C(C)(C)C)ccc2[nH]1 [Example 139, (1R,2R)-1-Amino-1-(5-tert-butyl-1H-benzimidazol-2-yl)butan-2-ol] | 43.5 |
| CC(C)(C)c1ccc2[nH]c([C@@H](N)COC(N)=O)nc2c1 [Example 143, (R)-2-Amino-2-(5-(tert-butyl)-1H-benzo[d]imidazol-2-yl)ethyl carbamate] | 85.2 |

Source: patent US8927587B2, “Chemical compounds” (Pfizer Limited, priority 2012, dated 2015)
